Measured values taken from PMC7216583 (Parasites & Vectors, 2020).
pEC50, pIC50, pKi: −log10 of the molar value. Structures can show the parent of a compound that is named as a salt. Where two headings read alike, the source gives them in different places.

What was measured:
[1] = biological target: opioid receptor-like1 (ORL1) receptor; design: method as in S-inhibitor catalog; details: vendor brief description; ref S-inhibitor catalog; cited from earlier work
in vitro = details: human, Host viability (%) mean
[2] = tested on: Toxoplasma gondii RH-2F tachyzoites; assay: microbe, parasite or virus in culture; details: 72 h
muscarinic receptor = biological target: muscarinic receptor; design: method as in S-inhibitor catalog; details: vendor brief description; ref S-inhibitor catalog; read-out: Kb, muscarinic receptor antagonist; cited from earlier work
[3] = biological target: farnesoid X receptor (FXR); design: method as in S-inhibitor catalog; details: vendor brief description; ref S-inhibitor catalog; read-out: EC50, FXR agonist; cited from earlier work
γ-secretase [4] = biological target: γ-secretase; design: method as in S-inhibitor catalog; details: vendor brief description; ref S-inhibitor catalog; read-out: IC50, cell-based γ-secretase; cited from earlier work
γ-secretase [5] = biological target: γ-secretase; design: method as in S-inhibitor catalog; details: vendor brief description; ref S-inhibitor catalog; read-out: IC50, membrane-based γ-secretase; cited from earlier work
5-HT Receptor = biological target: 5-HT Receptor; design: method as in S-inhibitor catalog; details: vendor brief description; ref S-inhibitor catalog; cited from earlier work
PI3Kγ = tested on: PI3Kγ; design: method as in S-inhibitor catalog; details: vendor brief description; ref S-inhibitor catalog; cited from earlier work
PKA = biological target: PKA; design: method as in S-inhibitor catalog; details: vendor brief description; ref S-inhibitor catalog; cited from earlier work
[6] = biological target: TGF-β receptor type II (TβRII); design: method as in S-inhibitor catalog; details: vendor brief description; ref S-inhibitor catalog; cited from earlier work
DNA-PK = tested on: DNA-PK; design: method as in S-inhibitor catalog; details: vendor brief description; ref S-inhibitor catalog; cited from earlier work
PI3K = tested on: PI3K; design: method as in S-inhibitor catalog; details: vendor brief description; ref S-inhibitor catalog; cited from earlier work
[7] = tested on: Pol I-driven transcription of rRNA; design: method as in S-inhibitor catalog; details: in HCT-116 cells; vendor brief description; ref S-inhibitor catalog; cited from earlier work
ErbB1 = tested on: ErbB1; design: method as in S-inhibitor catalog; details: vendor brief description; ref S-inhibitor catalog; cited from earlier work
ErbB2 = tested on: ErbB2; design: method as in S-inhibitor catalog; details: vendor brief description; ref S-inhibitor catalog; cited from earlier work
ErbB4 = tested on: ErbB4; design: method as in S-inhibitor catalog; details: vendor brief description; ref S-inhibitor catalog; cited from earlier work
AMPK = details: read-out: EC50, AMPK activation; vendor brief description; ref S-inhibitor catalog; cited from earlier work
fatty acid synthesis = tested on: fatty acid synthesis; design: method as in S-inhibitor catalog; details: vendor brief description; ref S-inhibitor catalog; cited from earlier work
ALK = details: read-out: IC50, ALK; vendor brief description; ref S-inhibitor catalog; cited from earlier work
IGF-1R = tested on: IGF-1R; design: method as in S-inhibitor catalog; details: vendor brief description; ref S-inhibitor catalog; cited from earlier work
Aurora B = tested on: Aurora B; design: method as in S-inhibitor catalog; details: vendor brief description; ref S-inhibitor catalog; cited from earlier work
Aurora A = tested on: Aurora A; design: method as in S-inhibitor catalog; details: vendor brief description; ref S-inhibitor catalog; cited from earlier work
MEK2 = tested on: MEK2; design: method as in S-inhibitor catalog; details: vendor brief description; ref S-inhibitor catalog; cited from earlier work
[8] = read-out: Parasite inhibition (%) mean, preliminary screen of compound library, mean

CCc1ccc(OCc2ccccc2C(=O)Nc2ccc3nc(C)cc(N)c3c2)cc1 [JTC-801]
pIC50 [1]: 7.03 | viability at 72 h (in vitro): 16.4% | inhibition of growth at 5 µM [2, 8]: 98.8%

CC(C)N(CC[C@H](c1ccccc1)c1cc(CO)ccc1O)C(C)C [5-hydroxymethyl tolterodine (PNU 200577)]
Kb (muscarinic receptor): 0.84 nM | inhibition of growth at 5 µM [2, 8]: -18.8%

CC(C)OC(=O)C1=CN(C(=O)c2ccc(F)c(F)c2)CC(C)(C)c2c1[nH]c1ccccc21 [WAY-362450]
pEC50 [3]: 8.40 | inhibition of growth at 5 µM [2, 8]: -2.1%

C[C@H](NC(=O)[C@@H](O)c1cc(F)cc(F)c1)C(=O)N[C@@H]1C(=O)N(C)c2ccccc2-c2ccccc21 [LY411575]
pIC50 (γ-secretase [4]): 10.09 | pIC50 (γ-secretase [5]): 10.11 | inhibition of growth at 5 µM [2, 8]: 0.9%

COc1ccccc1N1CCN(CCN(C(=O)C2CCCCC2)c2ccccn2)CC1 [WAY-100635 HCl]
pIC50 (5-HT Receptor): 9.02 | inhibition of growth at 5 µM [2, 8]: -0.7%

O=C1NC(=O)C(=Cc2ccc(-c3ccc(F)cc3)o2)S1 (stereo in doubt) [CAY10505]
pIC50 (PI3Kγ): 7.52 | inhibition of growth at 5 µM [2, 8]: -7.4%

Cc1n[nH]c2ccc(-c3cncc(OC[C@@H](N)Cc4ccccc4)c3)cc12 [A-674563]
pKi (PKA): 7.80 | inhibition of growth at 5 µM [2, 8]: 67.7%

c1ccc(-c2nn3c(c2-c2ccnc4cc(OCCN5CCOCC5)ccc24)CCC3)nc1 [LY2109761]
pKi [6]: 6.52 | inhibition of growth at 5 µM ([2]; read-out: Parasite inhibition (%) mean): 46.7%

O=c1cc(N2CCOCC2)oc2c(-c3cccc4c3sc3ccccc34)cccc12 [NU7441 (KU-57788)]
pIC50 (DNA-PK): 7.85 | pIC50 (PI3K): 5.30 | inhibition of growth at 5 µM [2, 8]: 21.5%

Cc1cnc(CNC(=O)c2c(=O)c3ccc(N4CCCN(C)CC4)nc3n3c2sc2ccccc23)cn1 [CX-5461]
pIC50 [7]: 6.85 | inhibition of growth at 5 µM [2, 8]: 2.5%

COc1cc2ncnc(Nc3ccc(F)c(Cl)c3)c2cc1NC(=O)/C=C/CN1CCCCC1 [Dacomitinib (PF299804,PF-00299804)]
pIC50 (ErbB1): […] | pIC50 (ErbB2): […] | pIC50 (ErbB4): […] | inhibition of growth at 5 µM [2, 8]: 0.4%

N#Cc1c(O)c2c(-c3ccc(-c4ccccc4O)cc3)csc2[nH]c1=O [A-769662]
pEC50 (AMPK): […] | pIC50 (fatty acid synthesis): 5.49 | inhibition of growth at 5 µM [2, 8]: -13.9%

CNC(=O)c1c(F)cccc1Nc1nc(Nc2cc3c(cc2OC)CCN3C(=O)CN(C)C)nc2[nH]ccc12 [GSK1838705A]
pIC50 (ALK): 9.30 | viability at 72 h (in vitro): 72.8% | pIC50 (IGF-1R): 8.70 | inhibition of growth at 5 µM [2, 8]: 70.9%

CC(=O)NCC(=O)N1[C@H]2CC[C@H]1c1cc(Nc3ncc(C(F)(F)F)c(NC4CCC4)n3)ccc12 [PF-03814735]
pIC50 (Aurora B): 8.30 | pIC50 (Aurora A): 9.10 | viability at 72 h (in vitro): 60.3% | inhibition of growth at 5 µM [2, 8]: 80.4%

CC(=O)Nc1cccc(-n2c(=O)n(C3CC3)c(=O)c3c(Nc4ccc(I)cc4F)n(C)c(=O)c(C)c32)c1 [GSK1120212 (Trametinib)]
pIC50 (MEK2): […] | inhibition of growth at 5 µM [2, 8]: -8.7%
